Test results reported in article PMC7026418, “The kinase polypharmacology landscape of clinical PARP inhibitors” (Scientific Reports, 2020).
Where two headings read alike, the source gives them in different places. One block for each molecule: values may come before it.

What was measured:
Test in all cases: biochemical
Parameters in all cases: DiscoveRx KINOMEscan active site-directed competition binding; percent of control kinase bound to immobilised ligand
[1] = target: T1, PRKD1 (Homo sapiens, UniProt Q15139)
T1 sequence (Q15139 1-912): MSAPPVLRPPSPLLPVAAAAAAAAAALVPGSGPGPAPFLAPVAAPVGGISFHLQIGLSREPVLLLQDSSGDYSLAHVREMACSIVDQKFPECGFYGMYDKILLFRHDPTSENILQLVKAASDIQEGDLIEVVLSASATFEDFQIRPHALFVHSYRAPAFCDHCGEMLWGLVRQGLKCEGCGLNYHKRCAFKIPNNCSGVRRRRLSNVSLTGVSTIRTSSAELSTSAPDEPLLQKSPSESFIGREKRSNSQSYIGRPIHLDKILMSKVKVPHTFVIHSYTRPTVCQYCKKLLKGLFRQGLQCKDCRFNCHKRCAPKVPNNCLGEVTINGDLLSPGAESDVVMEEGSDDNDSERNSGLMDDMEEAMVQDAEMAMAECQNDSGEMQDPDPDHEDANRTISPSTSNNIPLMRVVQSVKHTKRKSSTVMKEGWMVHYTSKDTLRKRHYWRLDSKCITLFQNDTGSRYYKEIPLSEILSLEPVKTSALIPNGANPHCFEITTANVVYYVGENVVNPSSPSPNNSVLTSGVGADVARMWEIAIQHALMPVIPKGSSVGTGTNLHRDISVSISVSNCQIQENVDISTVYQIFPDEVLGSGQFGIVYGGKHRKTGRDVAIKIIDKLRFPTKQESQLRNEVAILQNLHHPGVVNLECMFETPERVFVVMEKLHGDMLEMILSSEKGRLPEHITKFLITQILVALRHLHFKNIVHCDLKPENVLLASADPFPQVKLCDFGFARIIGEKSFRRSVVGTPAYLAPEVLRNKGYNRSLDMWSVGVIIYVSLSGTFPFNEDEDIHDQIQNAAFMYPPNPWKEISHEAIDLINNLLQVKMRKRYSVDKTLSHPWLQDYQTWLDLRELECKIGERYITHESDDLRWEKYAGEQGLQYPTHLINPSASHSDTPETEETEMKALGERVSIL

[2] = target: T2, CDC2L2 (Homo sapiens, UniProt Q9UQ88)
T2 construct: gene CDK11A
T2 sequence (Q9UQ88 1-783): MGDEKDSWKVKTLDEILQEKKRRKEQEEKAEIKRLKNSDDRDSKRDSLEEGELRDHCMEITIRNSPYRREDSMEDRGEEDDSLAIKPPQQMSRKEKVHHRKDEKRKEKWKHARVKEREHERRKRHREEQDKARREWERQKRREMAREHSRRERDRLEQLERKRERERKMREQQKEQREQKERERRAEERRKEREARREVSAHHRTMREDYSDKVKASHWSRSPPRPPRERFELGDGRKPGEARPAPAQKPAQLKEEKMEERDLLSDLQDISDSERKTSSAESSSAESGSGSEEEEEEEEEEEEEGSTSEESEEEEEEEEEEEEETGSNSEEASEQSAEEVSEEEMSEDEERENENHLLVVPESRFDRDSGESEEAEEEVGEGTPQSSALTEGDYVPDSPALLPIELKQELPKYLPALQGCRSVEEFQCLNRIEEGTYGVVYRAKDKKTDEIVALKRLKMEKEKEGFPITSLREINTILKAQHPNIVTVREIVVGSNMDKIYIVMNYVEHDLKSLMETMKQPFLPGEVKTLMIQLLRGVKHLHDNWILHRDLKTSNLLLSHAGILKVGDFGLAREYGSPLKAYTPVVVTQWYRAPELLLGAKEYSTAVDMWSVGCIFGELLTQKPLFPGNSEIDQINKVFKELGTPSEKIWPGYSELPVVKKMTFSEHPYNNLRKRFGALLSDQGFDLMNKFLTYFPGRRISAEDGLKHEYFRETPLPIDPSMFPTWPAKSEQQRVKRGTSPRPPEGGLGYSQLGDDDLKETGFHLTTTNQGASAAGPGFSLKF

[3] = target: AKT2 (Homo sapiens, UniProt P31751)
[4] = target: CDK4 (Homo sapiens, UniProt P11802)
[5] = target: T3, AXL (Homo sapiens, UniProt P30530)
T3 sequence (P30530 1-894): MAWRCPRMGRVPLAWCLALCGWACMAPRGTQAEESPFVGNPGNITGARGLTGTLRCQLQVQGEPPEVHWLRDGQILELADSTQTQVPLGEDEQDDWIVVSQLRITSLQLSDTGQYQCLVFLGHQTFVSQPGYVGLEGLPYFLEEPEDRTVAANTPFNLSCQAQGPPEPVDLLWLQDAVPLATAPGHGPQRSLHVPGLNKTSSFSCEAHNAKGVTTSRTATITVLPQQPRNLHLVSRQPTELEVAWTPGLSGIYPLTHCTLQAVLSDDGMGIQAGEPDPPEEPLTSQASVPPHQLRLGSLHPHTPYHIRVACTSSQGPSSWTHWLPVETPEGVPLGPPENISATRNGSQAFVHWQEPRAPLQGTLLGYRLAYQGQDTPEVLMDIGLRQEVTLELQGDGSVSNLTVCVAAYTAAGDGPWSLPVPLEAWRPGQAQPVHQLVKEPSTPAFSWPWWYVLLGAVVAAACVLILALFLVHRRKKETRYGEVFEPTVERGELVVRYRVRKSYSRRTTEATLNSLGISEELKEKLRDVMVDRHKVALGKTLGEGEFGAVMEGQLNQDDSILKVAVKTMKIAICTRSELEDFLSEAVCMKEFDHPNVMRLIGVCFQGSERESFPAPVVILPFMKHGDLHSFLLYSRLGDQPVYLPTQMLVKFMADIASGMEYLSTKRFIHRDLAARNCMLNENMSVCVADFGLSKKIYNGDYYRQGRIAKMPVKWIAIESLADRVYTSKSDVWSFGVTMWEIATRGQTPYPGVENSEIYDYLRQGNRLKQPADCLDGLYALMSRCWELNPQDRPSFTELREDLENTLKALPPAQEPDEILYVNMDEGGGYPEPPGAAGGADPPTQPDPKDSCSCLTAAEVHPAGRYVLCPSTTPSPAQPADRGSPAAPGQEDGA

[6] = read-out: Olaparib / %Ctrl @ 10000nM
[7] = read-out: Talazoparib (BMN 673) / %Ctrl @ 10000nM
[8] = read-out: Rucaparib / %Ctrl @ 10000nM, binding competition, % of control
[9] = read-out: Niraparib (MK-4827) / %Ctrl @ 10000nM

AKT2, sequence (P31751 whole entry): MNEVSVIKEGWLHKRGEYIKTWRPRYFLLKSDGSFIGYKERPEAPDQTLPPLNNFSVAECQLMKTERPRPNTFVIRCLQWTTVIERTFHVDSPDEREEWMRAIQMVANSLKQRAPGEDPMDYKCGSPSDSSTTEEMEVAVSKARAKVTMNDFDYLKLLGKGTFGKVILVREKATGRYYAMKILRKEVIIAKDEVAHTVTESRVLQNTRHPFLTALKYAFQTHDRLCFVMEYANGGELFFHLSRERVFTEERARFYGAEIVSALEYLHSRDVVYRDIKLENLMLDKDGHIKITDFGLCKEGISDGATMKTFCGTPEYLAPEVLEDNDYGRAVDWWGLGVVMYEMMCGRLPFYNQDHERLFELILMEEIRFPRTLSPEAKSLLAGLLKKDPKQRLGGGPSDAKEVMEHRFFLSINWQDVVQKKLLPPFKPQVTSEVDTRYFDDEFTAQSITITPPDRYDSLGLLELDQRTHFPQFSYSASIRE
CDK4, sequence (P11802 whole entry): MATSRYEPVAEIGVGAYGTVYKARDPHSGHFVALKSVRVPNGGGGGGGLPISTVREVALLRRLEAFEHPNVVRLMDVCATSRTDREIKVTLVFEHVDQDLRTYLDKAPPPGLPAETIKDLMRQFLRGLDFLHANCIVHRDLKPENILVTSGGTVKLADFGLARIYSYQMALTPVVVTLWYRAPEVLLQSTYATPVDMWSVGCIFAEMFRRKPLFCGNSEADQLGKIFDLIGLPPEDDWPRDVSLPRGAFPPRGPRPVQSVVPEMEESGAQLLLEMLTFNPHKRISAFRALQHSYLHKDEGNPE

percent of control binding at 10 µM [1, 6]: 89%
percent of control binding at 10 µM [2, 6]: 100%
percent of control binding at 10 µM [3, 6]: 79%
percent of control binding at 10 µM [4, 6]: 85%
percent of control binding at 10 µM [5, 6]: 100%
SMILES: O=C(c1cc(Cc2n[nH]c(=O)c3ccccc23)ccc1F)N1CCN(C(=O)C2CC2)CC1 [Olaparib]

percent of control binding at 10 µM [1, 7]: 100%
percent of control binding at 10 µM [2, 7]: 100%
percent of control binding at 10 µM [3, 7]: 84%
percent of control binding at 10 µM [4, 7]: 100%
percent of control binding at 10 µM [5, 7]: 100%
SMILES: Cn1ncnc1[C@H]1c2n[nH]c(=O)c3cc(F)cc(c23)N[C@@H]1c1ccc(F)cc1 [Talazoparib]

percent of control binding at 10 µM [1, 8]: 67%
percent of control binding at 10 µM [2, 8]: 88%
percent of control binding at 10 µM [3, 8]: 87%
percent of control binding at 10 µM [4, 8]: 94%
percent of control binding at 10 µM [5, 8]: 82%
SMILES: CNCc1ccc(-c2[nH]c3cc(F)cc4c3c2CCNC4=O)cc1 [Rucaparib]

SMILES: NC(=O)c1cccc2cn(-c3ccc([C@@H]4CCCNC4)cc3)nc12 [Niraparib]
percent of control binding at 10 µM [1, 9]: 86%
percent of control binding at 10 µM [2, 9]: 83%
percent of control binding at 10 µM [3, 9]: 93%
percent of control binding at 10 µM [4, 9]: 100%
percent of control binding at 10 µM [5, 9]: 59%
